One assay deals with MDA-MB-468 tumors. The assay can be described thus: Antitumor activity in mice. In kind it is in vivo, Nude mice. The protocol:
Nude mice (Jackson Laboratories, Bar Harbor, Me., USA) were injected with 4×10^6 cells of MDA-MB-468 in the mammary pad and tumor size was measured weekly using a caliper. When the tumor reached approximately 100 mm^3 diameter the mice were divided into a control group and a group treated with KSA-101696 200 mg/kg via intraperitoneal injection (three cycles every four days). Apparent toxicity as determined by body weight loss is recorded by measuring total body weight. Breeding, care and sacrifice of the animals were carried out in accordance with the protocols approved by the Animal Care and Use Committee of the King Faisal Specialist Hospital and Research Centre.
Because of the observed selective cytotoxic effect of compound KSA-101696 against cancer cells and the tolerance of normal cells and normal stem cells in vitro, a high dose of compound KSA-101696 (200 mg/kg) was used on mice.

For another assay, the system named is MDA-MB-231 cells. The assay can be described thus: Migration assay. It is filed as cell-based. As to conditions: Homo sapiens, 2.5 μM to 20 μM, read-out: IC50, migration capacity. The protocol:
To assess the metastatic potential of tumor cells, their migration and invasion was evaluated using the 24-well BD BioCoat Matrigel Invasion Chamber as per the manufacturer guideline (BD Bioscience). In brief, 750 μl of migration buffer (serum-free media with or without treatment) or chemoattractants (serum-containing media) were added to the lower wells. Cells were washed three times in migration media and 500 μl (1-2×10^5) of cells were added to the upper wells separated by an 8 micron pore size PET membrane with a thin layer of matrigel basement membrane matrix (for invasion) or without (for migration). The membranes were stained with Diff Quick stain (Fisher Scientific) after removing the non-migrated cells from the top of the membrane with Q-tips. After air drying, the membranes were cut and mounted on slides with oil and cells that had migrated to the underside of the filter were counted using a light microscope (Zeiss Axio Observer) in five randomly selected fields (magnification: 40×). Each assay was performed in triplicate and repeated at least five times. The results were expressed as mean±SD of migrating cells per field counted (FIGS. 6A-6B).

A further assay deals with SP cells of MCF-7 cells. As to the kind of experiment: Side population (SP) cell fraction by flow cytometry. In kind it is cell-based. As to conditions: Homo sapiens, MCF7, 24 h, normal culture conditions, read-out: IC50, SP cell inhibition. From the text:
(§1) It is known that one of the properties of stem/progenitor cells is their ability to survive under anchorage-independent conditions and generate mammospheres, which are composed of a small number of stem cells. Given that CSCs generally make up for a small minority of the cells within cancer cell populations, the dye DyeCycle Violet was used to isolate SP cells (side population cells; the side population is enriched for stem/progenitor cells), through a BD FACSAria™ cell sorter. Subsequently, the isolated SP cells were used in a Mammosphere Formation Assay. SP cells of MCF-7 and BT-474 formed more mammospheres than non-SP cells (see FIG. 4A).
Next, the effects of the compound KSA-101696 in SP cells under normal culture conditions was evaluated.

Another assay concerns T47D. As to the kind of experiment: Annexin V binding by flow cytometry (apoptosis). It is filed as cell-based. Particulars: high Numb expression, FIG. 9B. The method, then:
(§2) It is known that loss of phospholipid asymmetry of the plasma membrane is an early event of apoptosis. The annexin V binds to negatively charged phospholipids, like phosphatidylserine. During apoptosis, the cells react to annexin V once chromatin condenses but before the plasma membrane loses its ability to exclude propidium iodide (PI).
(§3) Annexin-V staining was performed by using Vybrant Apoptosis Assay Kit #2 (Molecular Probes) following the manufacturer's recommendations. Annexin-V stained cells were analyzed by flow cytometry, measuring the fluorescence emission between 515 nm to 545 nm.
This experiment was carried out with three breast cancer cell lines: MDA-MB-468, SKBR-3 and T47D. The MDA-MB-468 cell line represents the basal like breast cancer (which is a breast cancer subtype with a more aggressive clinical behavior). The SKBR-3 cell line represents Her-2 overexpressing breast cancer. […] The T47D cell line represents ER/PR positive breast cancer. Unlike MDA-MB-468 cells or SKBR-3 cells, T47D cells are highly differentiated cells and respond very well to hormonal therapy and chemotherapy.
(§4) In a next step, it was investigated whether there was a correlation between Numb protein expression and sensitivity of a cell line to the apoptotic effects of KSA-101696. Apoptotic cells were determined by Annexin-V staining as described in Example 1.

A further assay has as its system MDA-MB-468. The assay can be described thus: Annexin V binding by flow cytometry (apoptosis). It is filed as cell-based. The method, then:
as §2, §3
(§5) To evaluate the selective-apoptotic effect of the compound in cancer cells but not normal cells, the cancer cell lines SKBR3, MDA-MB-468, and normal cells MCF-10 A, HSFN1 (human foreskin cells) and BM4 (bone marrow derived mesenchymal stem cells) were used. […] Upon treatment of cells with 20 μM for 48 h, cells were stained with Annexin-V and PI and binding of Annexin-V and PI to the cells was determined by flow cytometry.
as §4

A further assay deals with SKBR-3. The assay can be described thus: Annexin V binding by flow cytometry (apoptosis). It is filed as cell-based. The method, then:
as §2, §3, §5, §4

The next assay has as its system SP cells of BT-474. The assay can be described thus: Mammosphere formation assay. It is filed as cell-based. As to conditions: 5 μM, 7 days old mammospheres. The method, then: (§6) Cell were harvested and counted by using trypan blue to exclude the dead cells. Cells cultured in suspension (1000 cells/100 μL) in serum-free mammary epithelium basal medium, supplemented with B27 supplement 1:50; (GIBCO), 20 ng/mL EGF (epidermal growth factor; Preprotech), 5 μg/mL insulin (Sigma), 1% Antibiotic-Antimycotic (GIBCO) and 0.5 μg/ml hydrocortisone (Sigma), as described previously (Dontu et al.). Mammospheres were allowed to grow for 7 days, then treated for 72 h by either control media (0.1% DMSO) or media containing different concentrations of the compound. Mammospheres were counted on a Leitz Labovert inverted Microscope. Mammosphere size was measured and a picture was taken on a Evos transmitted light microscope.
as §1
(§7) Treatment of 7 days old mammospheres of both cell lines with 5 μM of KSA-101696 decreased the number of mammospheres formed by 50% compared to DMSO treatment (FIG. 4A).

In a further assay the test system is SP cells of MCF-7. As to the kind of experiment: Mammosphere formation assay. It is filed as cell-based. The method, then:
as §6, §1, §7

With `COc1ccc(-c2csc3nc4ccccc4n23)cc1` [KSA-101696, 3-(4-methoxyphenyl)benzo[4,5]imidazo[2,1-b]thiazole], the “reduction (shrinking) of tumor volume” value with MDA-MB-468 tumors (200 mg/kg intraperitoneal, three doses, mice bearing MDA-MB-468 tumors) is recorded as 70%. Moreover, the ED50 in the assay with MDA-MB-468 tumors (Mus musculus, MDA-MB-468, ip, intraperitoneal, read-out: ED50 (dose that shrinks the tumor volume by 50% at the end of treatment)) was determined as 50 mg/kg. Besides, the values for the IC50 in the assay with MDA-MB-231 cells and in the assay with SP cells of MCF-7 cells were roughly 7.5 µM and roughly 300 nM, respectively. Besides, the “apoptosis (Annexin-V) in relation to Numb expression” value in the assay with T47D is reported as “did not have such effects”; in the assay on MDA-MB-468 (MDA-MB-468, low levels of Numb expression, FIG. 9B) it was “increased apoptosis”; in the assay with SKBR-3 (SKBR-3, low levels of Numb expression, FIG. 9B), “increased apoptosis”. Besides, the “apoptosis (Annexin-V and PI)” value in the assay on MDA-MB-468 (MDA-MB-468, 20 μM, 48 h) is reported as “induced apoptosis”; in the assay with SKBR-3 (SKBR-3, 20 μM, 48 h) it was “induced apoptosis”. Further, the “decrease of number of mammospheres formed compared to DMSO” value with SP cells of BT-474 was 50%; in the assay with SP cells of MCF-7 (MCF-7, 5 μM, 7 days old mammospheres), 50%. The “size of treated mammospheres” value in the assay with SP cells of MCF-7 (cell line not specified (FIG. 4B)) is “reduction in the size”.

(Values after patent US10550130B2, “Benzo-thiazolo-imidazole compounds and uses thereof” (KING SAUD UNIVERSITY, priority 2015, dated 2020).)
